Earlier results in paper PMC3923778 (PLoS Currents, 2014).

Tested on: HD mouse models
Design: method as in PMID 19281846, PMID 20923867, PMID 19291221, PMID 17184995
Details: ref [5], [7], [14], [15]; cited from earlier work

Compound	disease progression in HD mouse models
COc1ccc(C2CNC(=O)C2)cc1OC1CCCC1 (centres unmarked) [rolipram]	significantly delay disease progression
TP-10	significantly delay disease progression
